Assay [1] concerns the target PP1 association with Tat, NIPP1 and PNUTS (Homo sapiens, UniProt P62136). The assay is classed as cell-based. The note with it: Tat-transfected 293T cells, LC-MS peak amplitude.
In another assay the test system is CMV promoter. Nature of the assay: Control CMV promoter transcription (CMV-EGFP) in 293T cells. The note with it: 10 µM.
Another assay deals with T1, recombinant PP1α (Oryctolagus cuniculus, UniProt P62139).
T1 construct: purchased New England Biolabs, Ipswich, MA
T1 sequence (P62139 whole entry): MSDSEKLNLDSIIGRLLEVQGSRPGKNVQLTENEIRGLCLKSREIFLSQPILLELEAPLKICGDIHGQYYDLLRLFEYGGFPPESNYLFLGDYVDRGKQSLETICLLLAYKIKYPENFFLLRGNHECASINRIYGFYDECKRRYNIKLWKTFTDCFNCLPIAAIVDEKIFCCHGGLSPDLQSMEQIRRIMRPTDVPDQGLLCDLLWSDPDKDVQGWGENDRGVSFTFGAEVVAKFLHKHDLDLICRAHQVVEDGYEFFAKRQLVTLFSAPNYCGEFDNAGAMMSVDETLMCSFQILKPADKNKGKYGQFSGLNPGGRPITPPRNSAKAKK
In words: Malachite green dephosphorylation of RVxF-containing hybrid pRb peptides by PP1α. Format: biochemical. An excerpt: Here, we analyzed the effect of 1H4 on the binding of the Tat RVxF sequence to PP1 using hybrid PP1 substrates containing a substrate phosphopeptide linked to RVxF-containing sequences derived from Tat or NIPP1. As the substrate phosphopeptide, we used a retinoblastoma protein-derived HIPR(pS)[…] peptide (pRb) that is efficiently dephosphorylated by PP1 but not by the enzymatically-related PP2A [13]. The pRb peptide was linked to an extended RVxF-containing sequence derived from Tat ([…]) (pRb-Tat peptide) or the central domain of NIPP1 ([…]). To visualize the interaction between pRb-Tat and PP1 we built a computational model of the pRb-Tat peptide with PP1 complex (described in Materials and Methods). Based on this model, the pRb-Tat peptide is able to bind to the RVxF- accommodating groove of PP1 and, at the same time, to reach the active site of PP1 without any tension (Fig. 5A, green spheres; Fig. 5B, gray sticks). The pRb-Tat peptide was efficiently dephosphorylated by PP1 in vitro (Fig. 5C, V0 = 0.31 µM·min^-1). […] Addition of 1H4 at 3-fold molar excess (480 µM) over pRb-Tat (160 µM) inhibited pRb-Tat dephosphorylation and reduced the rate of dephosphorylation (Fig. 5C, V0 = 0.19 µM·min^−1) to the rate of pRb-Tat QACA dephosphorylation (Fig. 5C, V0 = 0.17 µM⋅min^−1). […] To further investigate the effect of 1H4 on the dephosphorylation of the pRb-Tat peptide, we analyzed the initial velocity versus pRb-Tat peptide substrate concentration plots. […] This was expected because the dephosphorylation site and the RVxF-containing sequence were fused into one hybrid substrate and 1H4 interferes with the binding of this substrate to PP1.
Figure 5 1H4 compound competes with RVxF motif. A. Superimposition of pRb-Tat peptide on the complex of PP1 with Spinophilin. PP1 surface is colored after the atom types. The spinophilin peptide is shown as magenta ribbon and the pRb-Tat peptide as orange ribbon. The Val25 and Phe27 residues of pRb-Tat and the Ile449 and Phe 451 residues of Spinophilin are shown as sticks. The 2-(N-morpholino)-ethanesulfonic acid bound in the active site of PP1 is shown in green spheres. The phosphorylated Ser6 residue of pRb-Tat peptide is shown as sticks. B. Phosphorylated Ser 6 residue binds to the active site of PP1. Comparative superimposition of pRb-Tat peptide over the crystal structure of MES bound in the active site of PP1. Catalytic resides are shown as sticks. MES is shown as green sticks, and the phosphorylated Ser6 residue of pRb-Tat peptide is shown as orange sticks. The pRb-Tat peptide is shown as orange ribbon. C. 1H4 inhibits kinetics of pRb-Tat peptide dephosphorylation by PP1α. Recombinant PP1α was assayed with pRb-Tat (WT or QACA mutant, 120 µM) in the absence or presence of 1H4 as indicated. The reactions were stopped at indicated time points and the phosphate release was quantified by malachite green assay. Initial velocity was calculated by linear regression in Prism. D. 1H4 inhibits kinetics of pRb-cdNIPP dephosphorylation by PP1α. Recombinant PP1α was assayed with pRb-cdNIPP1 in the absence or presence of 1H4 as indicated. Mutant pRb cdNIPP1 pA-RATA was used as negative control. The reactions were stopped at indicated time points and the phosphate release was quantified by malachite green assay. Initial velocity was calculated by linear regression in Prism. […] Initial rates of pRb-Tat peptide dephosphorylation by PP1α were assayed at the indicated concentrations of the substrate in the absence or presence of 300 µM 1H4 or non-HIV-1 inhibitory 1G3. The amount of the released phosphate was quantified with malachite green.
Malachite green dephosphorylation assays were carried out with the Ser/Thr phosphatase assay kit (Upstate, Lake Placid, NY) using recombinant PP1α (New England Biolabs, Ipswich, MA). […]

Consider one compound from PMC3387161, “Small Molecules Targeted to a Non-Catalytic “RVxF” Binding Site of Protein Phosphatase-1 Inhibit HIV-1” (PLoS ONE, 2012).

Where “and” joins values, the source holds several entries; their conditions need not be identical. Identical values can stand only once.

PP1 association with Tat, NIPP1 and PNUTS, sequence (P62136 2-330): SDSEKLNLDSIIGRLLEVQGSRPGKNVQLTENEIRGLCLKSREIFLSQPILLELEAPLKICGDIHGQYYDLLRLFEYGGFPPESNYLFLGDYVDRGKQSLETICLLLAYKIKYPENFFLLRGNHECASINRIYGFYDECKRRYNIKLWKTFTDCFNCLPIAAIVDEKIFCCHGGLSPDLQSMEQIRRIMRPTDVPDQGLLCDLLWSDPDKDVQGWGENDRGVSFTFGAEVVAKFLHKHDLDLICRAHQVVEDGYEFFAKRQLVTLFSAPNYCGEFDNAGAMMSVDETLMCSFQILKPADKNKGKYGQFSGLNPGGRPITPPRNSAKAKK

As to `COCCNC(=O)COC(=O)c1c2c(nc3ccccc13)/C(=C/c1ccc(O)cc1)CCC2` [1H4], in assay [1], the “Interaction of PP1 with PNUTS and NIPP1” value is “without any effect on the interaction of PP1 with PNUTS or NIPP1”; the “Tat association with PP1 (microcystin precipitation)” value is “Tat association was reduced”. Further, the “Effect on transcription from control CMV promoter” value in the assay with CMV promoter was “did not inhibit transcription from a control CMV promoter”. In addition, the “Effect on and mode of inhibition of pRb-Tat dephosphorylation by PP1α” value on recombinant PP1α (300 µM compound, Lineweaver-Burk plot) was “competitive”. On recombinant PP1α (300 µM compound, control 16.67, 25% of substrate assumed phosphorylated), the “pRB-Tat VMAX” value stood at 18.20. Besides, at recombinant PP1α (1H4 added), the “V0 of pRb-cdNIPP1 dephosphorylation by PP1α in presence of compound” value was 0.37 µM·min^-1 and 0.37 ± 0.01 µM·min^-1. Further, the “V0 of pRb-Tat dephosphorylation by PP1α in presence of compound” value at recombinant PP1α (1H4 at 3-fold molar excess (480 µM) over pRb-Tat (160 µM)) is 0.19 µM·min^-1 and 0.19 ± 0.01 µM·min^-1.
